Experiment [1] concerns wildtype Wnt signaling cascade. Kind of experiment: HEK293 TOP assay (Super TopFlash luciferase reporter, Wnt-3a stimulated). Format: cell-based. To be noted: Homo sapiens, HEK293 TOP reporter cells, Wnt3a at EC50, 16 hours. The procedure, abridged: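 Compound series (50 μM down to 15 nM, 3.16-fold) diluted from DMSO 50-fold into CAFTY buffer, pH 7.4, 2 mM Ca^2+, 0.01% BSA, applied to Wnt-3a-stimulated HEK293 TopFlash and FOP reporter lines in parallel. Cells seeded 10000/well 24 h before; luciferase signal measured.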

In experiment [2] the test system is HEK293 cells cotransfected with the FOP control vector. In words: HEK293 FOP assay (control reporter with non-functional TCF elements). The class given is cell-based. To be noted: Homo sapiens, 16 hours. In short, it runs like this:
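Compound series from 50 μM down to 15 nM, prediluted in DMSO then 50-fold into CAFTY buffer (pH 7.4, 2 mM Ca2+, 0.01% BSA), tested alongside TOP cells on a Geneticin-selected HEK293 FOP line whose TCF elements are replaced by a random sequence; recombinant human Wnt-3a applied at 2500-5 ng/ml.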

Another experiment deals with T1, TNKS2 (Homo sapiens, UniProt Q9H2K2).
T1 construct: purchased BPS Bioscience, San Diego, USA 80572 (TNKS2 Histone Ribosylation Assay Kit)
T1 sequence (Q9H2K2 1-1166): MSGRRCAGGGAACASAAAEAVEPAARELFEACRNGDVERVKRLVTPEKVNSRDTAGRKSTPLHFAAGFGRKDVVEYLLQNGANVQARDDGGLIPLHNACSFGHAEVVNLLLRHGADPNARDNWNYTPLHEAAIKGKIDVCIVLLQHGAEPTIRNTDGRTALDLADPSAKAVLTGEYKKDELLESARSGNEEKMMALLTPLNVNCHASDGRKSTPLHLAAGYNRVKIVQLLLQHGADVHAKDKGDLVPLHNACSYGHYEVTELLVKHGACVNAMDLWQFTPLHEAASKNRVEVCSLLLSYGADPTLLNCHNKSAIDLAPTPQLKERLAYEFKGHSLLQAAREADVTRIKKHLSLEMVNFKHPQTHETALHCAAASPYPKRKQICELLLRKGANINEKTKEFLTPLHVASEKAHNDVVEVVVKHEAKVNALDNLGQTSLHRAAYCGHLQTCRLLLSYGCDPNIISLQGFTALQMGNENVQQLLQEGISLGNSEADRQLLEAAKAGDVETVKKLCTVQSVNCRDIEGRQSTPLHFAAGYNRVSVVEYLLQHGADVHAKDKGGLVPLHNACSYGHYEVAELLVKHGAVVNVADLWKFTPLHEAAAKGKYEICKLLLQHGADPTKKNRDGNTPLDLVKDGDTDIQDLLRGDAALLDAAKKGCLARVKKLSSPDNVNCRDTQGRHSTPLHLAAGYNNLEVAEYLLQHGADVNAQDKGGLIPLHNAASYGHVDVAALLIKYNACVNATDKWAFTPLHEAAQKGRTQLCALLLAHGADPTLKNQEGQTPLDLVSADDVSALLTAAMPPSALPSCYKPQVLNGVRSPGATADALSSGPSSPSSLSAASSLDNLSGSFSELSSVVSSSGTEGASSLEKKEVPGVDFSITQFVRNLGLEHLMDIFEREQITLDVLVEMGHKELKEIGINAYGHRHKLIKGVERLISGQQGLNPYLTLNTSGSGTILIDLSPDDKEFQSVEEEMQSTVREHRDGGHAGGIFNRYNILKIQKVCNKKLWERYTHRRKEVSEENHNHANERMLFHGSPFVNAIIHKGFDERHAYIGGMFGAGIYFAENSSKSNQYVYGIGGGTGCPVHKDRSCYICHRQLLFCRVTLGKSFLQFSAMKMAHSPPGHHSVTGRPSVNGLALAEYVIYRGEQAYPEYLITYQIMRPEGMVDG
In words: TNKS2 Assay B (auto-parsylation, [3H]-NAD+ SPA). Format: biochemical. To be noted: 6 nM TNKS2, auto-parsylation, over night at room temperature.

pIC50: −log10 of the molar value.

Consider `Cc1cc(N2CC[C@]3(CC[C@@H](NC(=O)c4[nH]cnc4C(=O)N4CC(OC(F)F)C4)CC3)C2=O)c(Cl)cc1F` [Example 296, N-[(trans)-2-(2-chloro-4-fluoro-5-methylphenyl)-1-oxo-2-azaspiro[4.5]dec-8-yl]-4-{[3-(difluoromethoxy)azetidin-1-yl]carbonyl}-1H-imidazole-5-carboxamide], for which the pIC50 in experiment [1] (HEK293, 16 h) is 8.89; in experiment [2] it was 4.46; against TNKS2 it was 8.08.

For the compound `Cc1cc(N2CCC[C@]3(CC[C@@H](NC(=O)c4[nH]cnc4C(=O)N4CC(F)C4)CC3)C2=O)c(Cl)cc1F` [Example 303, N-[(trans)-2-(2-chloro-4-fluoro-5-methylphenyl)-1-oxo-2-azaspiro[5.5]undec-9-yl]-4-[(3-fluoroazetidin-1-yl)carbonyl]-1H-imidazole-5-carboxamide], the pIC50 is 7.85 in experiment [1] (HEK293, 16 h); at most 6.30 in experiment [2]; 7.49 against TNKS2.

As for `CNC(=O)c1nc[nH]c1C(=O)N[C@H]1CC[C@@]2(CCCN(c3cc(C)c(F)cc3Cl)C2=O)CC1` [Example 304, N^5-[(trans)-2-(2-chloro-4-fluoro-5-methylphenyl)-1-oxo-2-azaspiro[5.5]undec-9-yl]-N^4-methyl-1H-imidazole-4,5-dicarboxamide], the pIC50 in experiment [1] (HEK293, 16 h) was 7.96; in experiment [2], at most 6.30; against TNKS2, 7.33.

Regarding `CCNC(=O)c1nc[nH]c1C(=O)N[C@H]1CC[C@@]2(CCCN(c3cc(C)c(F)cc3Cl)C2=O)CC1` [Example 305, N^5-[(trans)-2-(2-chloro-4-fluoro-5-methylphenyl)-1-oxo-2-azaspiro[5.5]undec-9-yl]-N^4-ethyl-1H-imidazole-4,5-dicarboxamide], the pIC50 was 8.09 in experiment [1] (HEK293, 16 h); at most 6.30 in experiment [2]; 7.19 on TNKS2.

With `COCCNC(=O)c1nc[nH]c1C(=O)N[C@H]1CC[C@@]2(CCCN(c3cc(C)c(F)cc3Cl)C2=O)CC1` [Example 306, N^5-[(trans)-2-(2-chloro-4-fluoro-5-methylphenyl)-1-oxo-2-azaspiro[5.5]undec-9-yl]-N^4-(2-methoxyethyl)-1H-imidazole-4,5-dicarboxamide], the pIC50 is 7.92 in experiment [1] (HEK293, 16 h); at most 6.30 in experiment [2]; 7.17 against TNKS2.

For `Cc1cc(N2CCC[C@]3(CC[C@@H](NC(=O)c4[nH]cnc4C(=O)NC4CC4)CC3)C2=O)c(Cl)cc1F` [Example 308, N^5-[(trans)-2-(2-chloro-4-fluoro-5-methylphenyl)-1-oxo-2-azaspiro[5.5]undec-9-yl]-N^4-cyclopropyl-1H-imidazole-4,5-dicarboxamide], the pIC50 is 8.27 in experiment [1] (HEK293, 16 h); 4.96 in experiment [2]; 6.96 against TNKS2.

For `Cc1cc(N2CCC[C@]3(CC[C@@H](NC(=O)c4[nH]cnc4C(N)=O)CC3)C2=O)c(Cl)cc1F` [Example 309, N^5-[(trans)-2-(2-chloro-4-fluoro-5-methylphenyl)-1-oxo-2-azaspiro[5.5]undec-9-yl]-1H-imidazole-4,5-dicarboxamide], the pIC50 in experiment [1] (HEK293, 16 h) was 7.00; in experiment [2] it was at most 4.30; against TNKS2 it was 7.35.

As to `Cc1cc(N2CCC[C@]3(CC[C@@H](NC(=O)c4[nH]cnc4C(=O)NC(C)C)CC3)C2=O)c(Cl)cc1F` [Example 310, N^5-[(trans)-2-(2-chloro-4-fluoro-5-methylphenyl)-1-oxo-2-azaspiro[5.5]undec-9-yl]-N^4-(propan-2-yl)-1H-imidazole-4,5-dicarboxamide], the pIC50 was 7.82 in experiment [1] (HEK293, 16 h); 4.89 in experiment [2]; 6.57 at TNKS2.

Take `Cc1cc(N2CCC[C@]3(CC[C@@H](NC(=O)c4[nH]cnc4C(=O)N4CC5(COC5)C4)CC3)C2=O)c(Cl)cc1F` [Example 311, N-[(trans)-2-(2-chloro-4-fluoro-5-methylphenyl)-1-oxo-2-azaspiro[5.5]undec-9-yl]-4-(2-oxa-6-azaspiro[3.3]hept-6-ylcarbonyl)-1H-imidazole-5-carboxamide]: the pIC50 was 7.52 in experiment [1] (HEK293, 16 h); at most 4.30 in experiment [2]; 7.39 at TNKS2.

`Cc1cc(N2CCC[C@]3(CC[C@@H](NC(=O)c4[nH]cnc4C(=O)NCCN4CCC(C)CC4)CC3)C2=O)c(Cl)cc1F` [Example 312, N^5-[(trans)-2-(2-chloro-4-fluoro-5-methylphenyl)-1-oxo-2-azaspiro[5.5]undec-9-yl]-N^4-[2-(4-methylpiperidin-1-yl)ethyl]-1H-imidazole-4,5-dicarboxamide]: the pIC50 was 7.62 in experiment [1] (HEK293, 16 h); at most 6.30 in experiment [2]; 8.39 against TNKS2.

In the case of `O=C(N[C@H]1CC[C@@]2(CCCN(c3cc(F)c(F)cc3Cl)C2=O)CC1)c1cnn2cccnc12` [Example 313, N-[(trans)-2-(2-chloro-4,5-difluorophenyl)-1-oxo-2-azaspiro[5.5]undec-9-yl]pyrazolo[1,5-a]pyrimidine-3-carboxamide], the pIC50 was 8.57 in experiment [1] (HEK293, 16 h); at most 6.30 in experiment [2]; 8.00 on TNKS2.

In the case of `O=C(N[C@H]1CC[C@@]2(CCCN(c3cc(F)c(F)cc3Cl)C2=O)CC1)c1cnc2cccnn12` [Example 314, N-[(trans)-2-(2-chloro-4,5-difluorophenyl)-1-oxo-2-azaspiro[5.5]undec-9-yl]imidazo[1,2-b]pyridazine-3-carboxamide], the pIC50 in experiment [1] (HEK293, 16 h) is 8.20; in experiment [2], at most 6.30; against TNKS2, 7.66.

For the compound `Cc1cc(C)n2ncc(C(=O)N[C@H]3CC[C@@]4(CCCN(c5cc(F)c(F)cc5Cl)C4=O)CC3)c2n1` [Example 315, N-[(trans)-2-(2-chloro-4,5-difluorophenyl)-1-oxo-2-azaspiro[5.5]undec-9-yl]-5,7-dimethylpyrazolo[1,5-a]pyrimidine-3-carboxamide], the pIC50 is 8.41 in experiment [1] (HEK293, 16 h); at most 6.30 in experiment [2]; 7.85 against TNKS2.

For the compound `O=C(N[C@H]1CC[C@@]2(CCCN(c3cc(F)c(F)cc3Cl)C2=O)CC1)c1[nH]cnc1C(=O)N1CC(F)C1` [Example 316, N-[(trans)-2-(2-chloro-4,5-difluorophenyl)-1-oxo-2-azaspiro[5.5]undec-9-yl]-4-[(3-fluoroazetidin-1-yl)carbonyl]-1H-imidazole-5-carboxamide], the pIC50 is 8.80 in experiment [1] (HEK293, 16 h); at most 6.30 in experiment [2]; 8.30 on TNKS2.

Regarding `CNC(=O)c1nc[nH]c1C(=O)N[C@H]1CC[C@@]2(CCCN(c3cc(F)c(F)cc3Cl)C2=O)CC1` [Example 317, N^5-[(trans)-2-(2-chloro-4,5-difluorophenyl)-1-oxo-2-azaspiro[5.5]undec-9-yl]-N^4-methyl-1H-imidazole-4,5-dicarboxamide], the pIC50 in experiment [1] (HEK293, 16 h) was 8.85; in experiment [2] it was at most 6.30; against TNKS2, 8.06.

For the compound `CCNC(=O)c1nc[nH]c1C(=O)N[C@H]1CC[C@@]2(CCCN(c3cc(F)c(F)cc3Cl)C2=O)CC1` [Example 318, N^5-[(trans)-2-(2-chloro-4,5-difluorophenyl)-1-oxo-2-azaspiro[5.5]undec-9-yl]-N^4-ethyl-1H-imidazole-4,5-dicarboxamide], the pIC50 in experiment [1] (HEK293, 16 h) was 8.70; in experiment [2], at most 6.30; at TNKS2, 8.06.

Regarding `CC(C)n1nc(C(=O)N[C@H]2CC[C@@]3(CCN(c4ccc(F)cc4Cl)C3=O)CC2)c2ccc(Br)cc21` [Example 319, 6-bromo-N-[(trans)-2-(2-chloro-4-fluorophenyl)-1-oxo-2-azaspiro[4.5]dec-8-yl]-1-isopropyl-1H-indazole-3-carboxamide], the results for the pIC50 (in experiment [1]; in experiment [2]; against TNKS2) were at most 4.30, at most 4.30 and below 5.00, respectively.

Values taken from patent US20180148418A1, “AMIDO-SUBSTITUTED CYCLOHEXANE DERIVATIVES” (Bayer Pharma Aktiengesellschaft, priority 2015, published 2018).
